# What was measured:
# [1] = test system: U251MG glioblastoma CDX; test: Subcutaneous U251MG glioblastoma CDX: time of tumor progression; assay type: in vivo, cd1 nu/nu mice (human GBM cell line); details: KcAng(1-7) 1 μg/kg/d, Losartan 20 mg/kg/d, or both
# Protocol: Effects of KcAng(1-7) were evaluated in vivo in a subcutaneous GBM xenograft model in nude mice. Insurgence of neurologic phenomena and differences in the survival rates were evaluated. Human GBM cell lines U87MG and U251MG were used. Cell lines were grown in DMEM nutrient mixture supplemented with 10% fetal bovine serum, 1% penicillin/streptomycin, and 25 mM HEPES buffer. All cell lines were cultured at 37° C. in a humidified atmosphere consisting of 5% CO2 and 95% air. Medium was changed every 2 days and the cell morphology was evaluated under microscope daily. Six-week-old male athymic nude mice (age 5-7 weeks) were housed with free access to food and water in a temperature-controlled room. Each group is represented by 10 xenograft cd1 nu/nu mice. […] Xenografts were measured every four days with a digital caliper in two perpendicular dimensions. Tumor volume was calculated according to the following formula: In vivo tumor response to treatment was evaluated using the following parameters: […] […] TP, TTP and DFS were analyzed by Kaplan-Meier curves and Gehan's generalized Wilcoxon test. […]
# [2] = test system: U87MG glioblastoma CDX; test: Subcutaneous U87MG glioblastoma CDX: tumor weight and time of tumor progression; assay type: in vivo, cd1 nu/nu mice (human GBM cell line); details: for tumor weight [%]: relative to vehicle = 100
# Protocol: Effects of KcAng(1-7) were evaluated in vivo in a subcutaneous GBM xenograft model in nude mice. Insurgence of neurologic phenomena and differences in the survival rates were evaluated. Human GBM cell lines U87MG and U251MG were used. Cell lines were grown in DMEM nutrient mixture supplemented with 10% fetal bovine serum, 1% penicillin/streptomycin, and 25 mM HEPES buffer. All cell lines were cultured at 37° C. in a humidified atmosphere consisting of 5% CO2 and 95% air. Medium was changed every 2 days and the cell morphology was evaluated under microscope daily.
# Six-week-old male athymic nude mice (age 5-7 weeks) were housed with free access to food and water in a temperature-controlled room. Each group is represented by 10 xenograft cd1 nu/nu mice. The mice were injected s.c. in the right distal hind limb with one million of cultured human tumor cell lines suspended in 0.15 mL of 2:1 solution of PBS/Matrigel (Matrigel BD Biosciences). Xenografts were measured every four days with a digital caliper in two perpendicular dimensions. Tumor volume was calculated according to the following formula:
# Tumor volume=(tumor width)×(tumor width)×(tumor length)÷2
# At the end of experiments, mice were euthanized and tumors removed. Weight loss or other signs of distress such as hunched posture were checked during and after treatments.
# Efficacy of treatment was evaluated by: (1) the size of tumors (vehicle control and treated), (2) the relative weight at the end of experiment, and (3) the indirect evaluation of angiogenesis by determining hemoglobin levels.
# In vivo tumor response to treatment was evaluated using the following parameters: (i) Complete response (CR): defined as the disappearance of a measurable lesion, (ii) Partial response (PR): defined as a reduction of greater than 50% of the sum of the products of the cross-sectional diameters of the measurable lesion, (iii) Stable disease (SD): defined as a reduction of less than 50% or an increase of less than 25% in the sum of the products of the cross-sectional diameters of the measurable lesions, (iv) Tumor progression (TP): defined as an increase of greater than […] in the sum of the products of the cross-sectional diameters of the measured lesion, (v) Time to progression (TTP) defining the tumor growth delay. Tumor progression was calculated through the analysis of bioluminescence imaging (BLI) photon counts and when possible through the analyses of tumor volumes calculated by magnetic resonance imaging (MRI), (vi) Disease free survival (DFS) is the time elapsed between the time point at which no luciferase activity is detectable anymore and the death of the animal, (vii) Overall survival (OS) is the time elapsed between tumor inoculation and death of the animal. […] Luciferase transfected cells were used for bioluminescence evaluations.
# Data are presented as mean and standard error of the mean (SEM) or standard deviation (SD). Statistical comparisons between control and treated groups were established by carrying out the Kruskal-Wallis test (a nonparametric one-way analysis of variance) or the Mann-Whitney test (in the case of two groups). The level of significance was corrected by multiplying the P value by the number of comparisons performed (n) according to […] correction. TP, TTP and DFS were analyzed by Kaplan-Meier curves and Gehan's generalized Wilcoxon test. All statistical analyses were undertaken using SPSS 10.0.
# Mice with U87MG cell CDX were randomized at day 0. KcAng(1-7) was injected daily subcutaneously (0.2 μg/kg) starting at day 0 until the (ethical) endpoint maximally at day 42. TMZ was administered at 16 mg/kg during 5 consecutive days, that is from […]. Volumetric evaluation of the tumor was performed every 4 days and tumor weight was measured at the end of the experiment.
# Synergism was determined using the methods described in Clarke et al. Breast Cancer Research and Treatment 46:255-278 (1997).
# Mice with U87MG cell CDX were randomized at day 0. […]
substance,measurement,setting,value
Lys-Asp-Arg-Val-Abu/Ala-Ile-His-Abu/Ala (KDRVAIHA; not fully specified; cyclic thioether (Abu/Ala bridge); VARIANT (5)..(5) /replace=“Abu”; VARIANT (8)..(8) /replace=“Abu”; SITE (1)..(8) /note=“Variant residues given in the sequence have no preference with respect to those in the annotations for variant positions”) [KcAng(1-7)],"Time of tumor progression - TTP, mean (days ± SEM)",[1],14.4 ± 0.8 days
same,"Time of tumor progression - TTP, mean (days ± SD)","[2]; KcAng(1-7) 0.2 μg/kg/d s.c., TMZ 16 mg/kg for 5 days, or both",12.80 ± 0.54 days
same,increase of the time of tumor progression,[2]; KcAng(1-7) 0.2 μg/kg/d vs vehicle,approximately 2 days
same,"Time of tumor progression - TTP, mean (days ± SEM)","[2]; KcAng(1-7) 1 μg/kg/d s.c., Losartan 20 mg/kg/d i.p., or both",15.2 ± 0.9 days
same,"Tumor weight, mean (mg ± SEM)","[2]; KcAng(1-7) 1 μg/kg/d s.c., Losartan 20 mg/kg/day i.p., or both",580 ± 27 mg
same,"Tumor weight, mean (mg ± SD)","[2]; end of experiment, KcAng(1-7) 0.2 μg/kg/d s.c., TMZ 16 mg/kg for 5 days, or both",830 ± 57 mg
same,tumor weight [%],"[2]; KcAng(1-7) 0.2 μg/kg/d, TMZ 16 mg/kg, or both",79.8%
same,tumor weight [%],"[2]; KcAng(1-7) 1 μg/kg/d, Losartan 20 mg/kg/d, or both",55.8%

# Reference: patent US20220257698A1, “ANGIOTENSIN TYPE 2 (AT2) RECEPTOR AGONISTS FOR USE IN THE TREATMENT OF CANCER” (LANTHIOPEP B.V., priority 2019, published 2022)
